Experimental data taken from patent US20240425484A1, “INHIBITORS OF TYK2” (Atomwise Inc., priority 2023, published 2024).

Each compound was assayed against T1, TYK2-JH2 (Homo sapiens, UniProt P29597) (assay: TYK2-JH2 HTRF binding assay (ligand efficiency)). Conditions: calculated (Equation 1) from IC50 of the TYK-JH2 binding assay.
T1 construct: TYK JH2 enzyme mix (ChemPartner: CP20210818A-BV); purchased ChemPartner CP20210818A-BV
Protocol: The following example describes the TYK2-JH2 HTRF binding assay used to determine the ligand efficiency of the TYK2 inhibitors.
To calculate ligand efficiency, Equation 1 is applied: […]
in which IC50 comes from the binding assay used to determine compound potency.
TYK JH2 enzyme mix (ChemPartner: CP20210818A-BV), tracer (ChemPartner: CP-0029472-051) and mAb Anti-6HIS Tb cryptate Gold (Cisbio: Cat No. 61HI2TLA) mix were prepared in assay buffer (10 mM MgCl2, 20 mM HEPES pH 7.5, 0.01% Triton X-100, 1 mM DTT). Compounds diluted in DMSO (Final Concentrations 0.1 to 0.000005 [μM]) and enzyme mix (0.5 nM Final Concentration) were added to 384 well plates, briefly centrifuged and incubated at room temperature for 10 minutes. After incubation, tracer mix (Tracer-35 nM final concentration); (MAb Anti-6HIS Tb cryptate Gold-0.5X final)) was added, briefly centrifuged then incubate at room temperature 60 minutes. After incubation, plates were read by Envision TR-FRET (Ex340/Em495/520) protocol (PerkinElmer-Envision 2104 multilabel plate reader).

T1 sequence (P29597 589-875 limits assumed): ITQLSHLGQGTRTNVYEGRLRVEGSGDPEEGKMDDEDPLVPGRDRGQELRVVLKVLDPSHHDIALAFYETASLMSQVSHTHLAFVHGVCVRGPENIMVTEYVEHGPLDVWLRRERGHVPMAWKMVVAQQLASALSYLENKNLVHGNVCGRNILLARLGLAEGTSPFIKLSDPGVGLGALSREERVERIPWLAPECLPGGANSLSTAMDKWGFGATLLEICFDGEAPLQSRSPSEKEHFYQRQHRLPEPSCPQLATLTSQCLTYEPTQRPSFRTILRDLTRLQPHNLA

Row | SMILES | Ligand Efficiency
1 | CS(=O)(=O)c1cccnc1Nc1cc(Nc2ccc(N3CCN(C4CC4)CC3)cn2)ncn1 [Compound 7, N^4-(5-(4-cyclopropylpiperazin-1-yl)pyridin-2-yl)-N^6-(3-(methylsulfonyl)pyridin-2-yl)pyrimidine-4,6-diamine] | ††† (†††: >0.39)
2 | CS(=O)(=O)c1ccccc1Nc1cc(Nc2ccc(N3CCOCC3)cn2)ncn1 [Compound 42, N^4-(2-(methylsulfonyl)phenyl)-N^6-(5-morpholinopyridin-2-yl)pyrimidine-4,6-diamine] | ††† (†††: >0.39)
3 | CC(c1ccc(Nc2cc(Nc3ncc(C4COC4)cc3S(C)(=O)=O)ncn2)nc1)N1CC2(COC2)C1 (centres unmarked) [Compound 78, N^4-(5-(1-(2-oxa-6-azaspiro[3.3]heptan-6-yl)ethyl)pyridin-2-yl)-N^6-(3-(methylsulfonyl)-5-(oxetan-3-yl)pyridin-2-yl)pyrimidine-4,6-diamine] | † (†: <0.37)
4 | Cc1cccc(Nc2cc(Nc3ccccc3C(N)=O)ncn2)n1 [Compound 46] | ††† (†††: >0.39)
5 | Cc1cccc(Nc2cc(Nc3ccccc3NS(C)(=O)=O)ncn2)n1 [Compound 53, N-(2-(6-(6-methylpyridin-2-ylamino)pyrimidin-4-ylamino)phenyl) methanesulfonamide] | ††† (†††: >0.39)
6 | C[C@H]1CN(C)CCN1c1ccc(Nc2cc(Nc3ncccc3S(C)(=O)=O)ncn2)nc1 [Compound 20, (S)—N^4-(5-(2,4-dimethylpiperazin-1-yl)pyridin-2-yl)-N^6-(3-(methylsulfonyl)pyridin-2-yl)pyrimidine-4,6-diamine] | ††† (†††: >0.39)
7 | Cc1ccnc(Nc2cc(Nc3ccccc3P(C)(C)=O)ncn2)c1 [Compound 63, N^4-(2-(dimethylphosphoryl)phenyl)-N^6-(4-methylpyridin-2-yl)pyrimidine-4,6-diamine] | ††† (†††: >0.39)
8 | CS(=O)(=O)c1cccnc1Nc1cc(Nc2ncccc2F)ncn1 [Compound 64, N^4-(3-fluoropyridin-2-yl)-N^6-(3-(methylsulfonyl)pyridin-2-yl)pyrimidine-4,6-diamine] | ††† (†††: >0.39)
9 | CC1(CNc2ccc(Nc3cc(Nc4ncccc4S(C)(=O)=O)ncn3)nc2)COC1 [Compound 36, N^4-(5-(((3-methyloxetan-3-yl)methyl)amino)pyridin-2-yl)-N^6-(3-(methylsulfonyl)pyridin-2-yl)pyrimidine-4,6-diamine] | ††† (†††: >0.39)
10 | Cc1cncc(Nc2cc(Nc3ccccc3C(N)=O)ncn2)n1 [Compound 49, 2-(6-(6-methylpyrazin-2-ylamino)pyrimidin-4-ylamino)benzamide] | ††† (†††: >0.39)
11 | COc1ccnc(Nc2cc(Nc3ccc(C(C)N4CC5(COC5)C4)cn3)ncn2)c1S(C)(=O)=O (centres unmarked) [Compound 76, N^4-(5-(1-(2-oxa-6-azaspiro[3.3]heptan-6-yl)ethyl)pyridin-2-yl)-N^6-(4-methoxy-3-(methylsulfonyl)pyridin-2-yl)pyrimidine-4,6-diamine] | † (†: <0.37)
12 | CC1(Nc2ccc(Nc3cc(Nc4ncccc4S(C)(=O)=O)ncn3)nc2)COC1 [Compound 21, N^4-(5-((3-methyloxetan-3-yl)amino)pyridin-2-yl)-N^6-(3-(methylsulfonyl)pyridin-2-yl)pyrimidine-4,6-diamine] | ††† (†††: >0.39)
13 | CS(=O)(=O)c1ccccc1Nc1cc(Nc2ccc3c(n2)CCCC3N2CC3(CCOCC3)C2)ncn1 (centres unmarked) [Compound 27, N^4-(5-(7-oxa-2-azaspiro[3.5]nonan-2-yl)-5,6,7,8-tetrahydroquinolin-2-yl)-N^6-(2-(methylsulfonyl)phenyl)pyrimidine-4,6-diamine] | † (†: <0.37)
14 | CS(=O)(=O)c1cccnc1Nc1cc(Nc2ccc(NC3CC(F)(F)C3)cn2)ncn1 [Compound 37, N^4-(5-(3,3-difluorocyclobutylamino)pyridin-2-yl)-N^6-(3-(methylsulfonyl)pyridin-2-yl)pyrimidine-4,6-diamine] | ††† (†††: >0.39)
